These results are taken from a melting point compilation (Tetko et al.; mined from patent text by program, amines drawn as free bases though some values may be those of a salt).

The structures appear in SMILES notation.

In general, melting point refers to the temperature, or range, at which the solid turns liquid. The molecule `CN(C=O)[C@@H]1CCCc2ccccc21` gave a melting point of 53 to 55 °C.

In turn, `CCCc1c(OCCCCCOc2ccc(C(=O)c3cccc(C(=O)O)c3)cc2CCC(=O)O)ccc2c1OCCC2=O` displayed a melting point of 122 to 128 °C.

Turning to `CCC(C)S(=O)(=O)c1snc(OC(F)F)c1C#N` (configuration not stated), the melting point is 42 to 43 °C.

`CN1C(=O)N(CC(COc2ccc(-c3ccc(S(N)(=O)=O)cc3)cc2)N(O)C=O)C(=O)C1(C)C` (configuration not stated) gave a melting point of 203 to 205 °C.

Take `O=CN(Cc1cccc2ccccc12)c1cccc(NC(=O)c2cc(Cl)cc(Cl)c2)c1`: the melting point fell in the range of 205 to 208 °C.

`C=C(C)Cc1c(C)c2c(c(C)c1O)CC(C)(C)N2C=O` yielded a melting point of 166 to 168 °C.

In the case of `O=S(=O)(O)CCCN1CCCc2ccccc21`, the melting point was 233 to 237 °C.

The molecule `N=C(NC(=O)c1cccc2ccccc12)N1CC(c2ccccc2)C(c2ccc(Cl)cc2)=N1` (configuration not stated) showed a melting point of 206 to 207 °C.

With `CN(C(=O)OC(C)(C)C)[C@@H]1CCc2c(c3cc(S(=O)(=O)c4ccccc4)ccc3n2C)C1`, the melting point fell in the range of 181 to 183 °C.

Consider `CC[C@@H]1c2onc(-c3ccc(Cl)cc3)c2CC[C@H]1C(=O)O` (relative stereo), for which the melting point fell in the range of 162 to 163 °C.

For `NNc1cc(-c2ccccn2)ccn1`, the melting point was 120 to 121 °C.

`c1ccc(-c2ncc(-c3ccc4cc(OCc5nnn[nH]5)ccc4c3)o2)cc1` returned a melting point of 239 to 241 °C.

`CSc1c(S(=O)(=O)NC(C)(C)C)ccn1C` had a melting point of 116 to 119 °C.

`CN1CC(CCN(C)c2ccccc2)N(C)c2nc3ccccc3n2C1=O` (configuration not stated) registered a melting point of 74 to 90 °C.

`O=C(O)CC1(O)CCC(N2CCN(CCCNc3ccncc3)CC2)CC1` (configuration not stated) registered a melting point of 242 °C.

As for `CCCCc1ncc(/C=C(\Cc2cccs2)C(=O)O)n1Cc1ccc(C(=O)O)c(C(=O)O)c1`, the melting point lay in the range of 204 to 205 °C.

`COC(=O)CCCc1ccc(CN2CCN(c3ccncc3)CC2)cc1` had a melting point of 126 to 127 °C.

In turn, `O=Cc1c(Cl)cccc1OC[C@H]1CO1` returned a melting point of 62 to 64 °C.

The molecule `CCN1c2ncc(CC(F)c3ccncc3)cc2C(=O)N(C)c2ccc(Cl)nc21` (configuration not stated) gave a melting point of 180 °C.

`Cc1ccc(-c2noc(CC(F)=C(F)F)n2)cc1` came in with a melting point of 46 to 50 °C.

`CCCCCS(=O)(=O)NC(=O)/C=C/c1ccc(OCCOC)cc1Oc1cc(C(F)(F)F)ccc1[N+](=O)[O-]` had a melting point of 164 to 165 °C.

On to `CCOc1nn(-c2ccc(C(F)(F)F)cc2)cc1CCCOc1cccc(CC(=O)O)c1`, for which the melting point was 108 to 109 °C.

In turn, `COP(=O)(Cc1ccc(-c2ccccc2)cc1)OC` displayed a melting point of 70 to 71 °C.

`Nc1nc(=O)n(COCc2ccccc2)cc1F`: the melting point was 213 to 217 °C.

As to `c1ccc(-c2cnc3cc4ccccc4cc3n2)cc1`, the melting point stood at 163 °C.

`CNNc1ccc(-c2ccc3c(=O)c(C(=O)O)cn(C4CC4)c3c2C)cn1` yielded a melting point of 246 °C.

`O=C1CCC(N2C(=O)c3cccc(CNC(=O)Nc4ccc5ccccc5c4)c3C2=O)C(=O)N1` (configuration not stated) registered a melting point of 201 to 203 °C.

As for `CCOC(=O)C(C)(O)c1ccncc1F` (configuration not stated), the melting point lay in the range of 56 to 60 °C.

For the molecule `Cc1oc(-c2ccccc2)nc1COc1ccc(Cn2cc(CCC(=O)O)c(O)n2)cc1`, the melting point was in the range of 197 to 198 °C.

On to `O=c1[nH]c(=O)n(C2OC(CO)C(O)C2F)cc1Br` (configuration not stated), for which the melting point lay within 214 to 216 °C.

`CS(=O)(=O)N(Cc1cccnc1)c1cccc([N+](=O)[O-])c1`: the melting point was in the range of 131 to 133 °C.

The molecule `O=C1c2ccccc2-c2ncccc21` yielded a melting point of 132 to 136 °C.

In the case of `O=C(Nc1cccc(Oc2ccccn2)c1)c1ccn2c1CSC2c1cccnc1` (configuration not stated), the melting point worked out at 132 °C.

Molecule `CCCCCCCCCCCC(=O)N[C@H](CC(=O)c1ccc2ccccc2c1)C(=O)OCC` came in with a melting point of 75 to 76 °C.

For the molecule `O=C1CCOc2ccc(OCc3ccccc3)cc21`, the melting point was in the range of 107 to 108 °C.

Regarding `O=S(=O)(NC(CCCN1CCN(c2ncc(F)cn2)CC1)c1ccc(F)cc1)c1ccc(F)cc1` (configuration not stated), the melting point lay in the range of 128 to 129 °C.

The molecule `O=P(c1ccccc1)(c1ccccc1)N1C[C@@H](P(c2ccccc2)c2ccccc2)C[C@H]1CP(c1ccccc1)c1ccccc1` returned a melting point of 130 °C.

With `COC(=O)[C@@H]1C[C@H](C(=O)OC(C)(C)C)N(C(=O)CNC(=O)OC(C)(C)C)[C@@H]1c1ccccc1` (racemic), the melting point worked out at 137 °C.

In turn, `Cc1ccc2noc(-c3ccccc3)c2c1` displayed a melting point of 64 to 66 °C.

`NS(=O)(=O)c1cccc(-c2cccc(-c3nc(-c4ccc(C(F)(F)F)cc4F)cc(C(F)(F)F)n3)c2)c1`: the melting point came to 224 °C.

Molecule `FC(F)(F)c1cccc(C(Cl)(Cl)Cl)c1Cl` gave a melting point of 32 to 33 °C.

Regarding `FC(F)(F)CO[Si](c1ccccc1)(c1ccccc1)c1ccccc1`, the melting point amounted to 114 °C.

The molecule `Fc1ccccc1Cn1nnc2c(NC3CC3)nccc21` yielded a melting point of 245 to 247 °C.

With `CCOC(=O)c1c(C(F)(F)F)nc(C(F)F)c(C(=O)OC)c1NCC(F)(F)F`, the melting point was in the range of 64 to 66 °C.

Regarding `O=S(=O)(NCc1ccc(O)cc1)c1ccc(Cl)cc1`, the melting point lay in the range of 187 to 189 °C.

Regarding `Cc1cc(C)c(C)c(COc2ccccc2-c2ccoc2C(=O)NNC(=O)c2ccc(O)c(C#N)c2)c1C`, the melting point was 215 to 217 °C.

`CC1(C)OC(c2ccc(S(C)(=O)=O)c(Br)c2)=C(c2ccccc2)C1=O` returned a melting point of 154 to 155 °C.

Turning to `COc1cc2nc(Cl)nc(-c3cccc([N+](=O)[O-])c3)c2cc1OC`, the melting point lay within 228 to 230 °C.

The molecule `COc1ccc(C2=NN(C3CCN(C(=O)c4ccccc4OC)CC3)C(=O)C(C)(C)C2)cc1OC` registered a melting point of 157 to 159 °C.

As for `O=Cc1cc(O)c(O)cc1[N+](=O)[O-]`, the melting point worked out at 201 °C.

On to `CN(Cc1ccc(NC(=O)/C=C/c2ccc(-c3ccc(C(C)(C)C)cc3)s2)cc1)C1CCOCC1`, for which the melting point lay within 216 to 220 °C.

With `O=C(N1CCOCC1)C1(c2onc(-c3ccc(O)cc3)c2-c2ccccc2)CC1`, the melting point fell in the range of 195 to 196 °C.

Molecule `Cn1cccc1C(=O)NCCCSc1ccncc1` yielded a melting point of 74 to 75 °C.

`Cc1nnc(-c2ccc3occ(-c4ccc(S(C)(=O)=O)cc4Cl)c3c2)o1`: the melting point lay within 198 to 199 °C.

Molecule `CC(=O)N(C)N(C(=O)OC(C)(C)C)c1ccc(CO)cc1` yielded a melting point of 122 to 123 °C.

The molecule `COc1cccc(Nc2ccnc(Nc3cc(OC)c(OC)c(SC)c3)n2)c1` came in with a melting point of 68 to 70 °C.

Molecule `O=C(O)C1CCCc2cc(C3CCCCC3)c(Cl)cc21` (configuration not stated) yielded a melting point of 119 to 120 °C.

`N#Cc1cnn2c(C(F)(F)F)cc(-c3ccccn3)nc12` registered a melting point of 208 °C.

In turn, `COc1ccc(Oc2cc3nc(-c4ccc(Cl)cc4Cl)oc3cc2[N+](=O)[O-])cc1` showed a melting point of 144 to 146 °C.

`CN(C)c1c(C#N)c(C(F)(F)F)nn1-c1c(Cl)cc(C(F)(F)F)cc1Cl` yielded a melting point of 105 to 107 °C.

With `CC(C)(C)OC(=O)N1CCN(c2ccc(Nc3ncc4ccc(N)nc4n3)cc2)CC1`, the melting point was 219 to 220 °C.

As to `CCCCNC(=O)Oc1c(C)cc(Oc2ccc(C)cc2)cc1C`, the melting point lay in the range of 110 to 112 °C.
